Target: hQC (Homo sapiens, UniProt Q16769)
Experiment: Fluorometric assay of glutaminyl cyclase (QC) inhibition, H-Gln-βNA or H-Gln-AMC substrate
Type: biochemical
Conditions: read-out: IC50
Description: All compounds were immediately tested regarding their activity as hQC inhibitors.
The purity of the compounds was determined by HPLC-MS. The IC50 value against hQC was measured using the fluorescent assay.
All measurements were performed with a BioAssay Reader HTS-7000Plus for microplates (Perkin Elmer) at 30° C. QC activity was evaluated fluorometrically using H-Gln-βNA. The samples consisted of 0.2 mM fluorogenic substrate, 0.25 U pyroglutamyl aminopeptidase (Unizyme, Hørsholm, Denmark) in 0.2 M Tris/HCl, pH 8.0 containing 20 mM EDTA and an appropriately diluted aliquot of QC in a final volume of 250 μl. Excitation/emission wavelengths were 320/410 nm. The assay reactions were initiated by addition of glutaminyl cyclase. QC activity was determined from a standard curve of β-naphthylamine under assay conditions. One unit is defined as the amount of QC catalyzing the formation of 1 μmol pGlu-βNA from H-Gln-βNA per minute under the described conditions.
In a second fluorometric assay, QC was activity was determined using H-Gln-AMC as substrate. Reactions were carried out at 30° C. utilizing the NOVOStar reader for microplates (BMG labtechnologies). The samples consisted of varying concentrations of the fluorogenic substrate, 0.1 U pyroglutamyl aminopeptidase (Qiagen) in 0.05 M Tris/HCl, pH 8.0 containing 5 mM EDTA and an appropriately diluted aliquot of QC in a final volume of 250 μl. Excitation/emission wavelengths were 380/460 nm. The assay reactions were initiated by addition of glutaminyl cyclase. QC activity was determined from a standard curve of 7-amino-4-methylcoumarin under assay conditions. The kinetic data were evaluated using GraFit software.
For inhibitor testing, the sample composition was the same as described above, except of the putative inhibitory compound added. For a rapid test of QC-inhibition, samples contained 4 mM of the respective inhibitor and a substrate concentration at 1 KM. For detailed investigations of the inhibition and determination of Ki-values, influence of the inhibitor on the auxiliary enzymes was investigated first. In every case, there was no influence on either enzyme detected, thus enabling the reliable determination of the QC inhibition. The inhibitory constant was evaluated by fitting the set of progress curves to the general equation for competitive inhibition using GraFit software.

Sequence of hQC (Q16769 29-361): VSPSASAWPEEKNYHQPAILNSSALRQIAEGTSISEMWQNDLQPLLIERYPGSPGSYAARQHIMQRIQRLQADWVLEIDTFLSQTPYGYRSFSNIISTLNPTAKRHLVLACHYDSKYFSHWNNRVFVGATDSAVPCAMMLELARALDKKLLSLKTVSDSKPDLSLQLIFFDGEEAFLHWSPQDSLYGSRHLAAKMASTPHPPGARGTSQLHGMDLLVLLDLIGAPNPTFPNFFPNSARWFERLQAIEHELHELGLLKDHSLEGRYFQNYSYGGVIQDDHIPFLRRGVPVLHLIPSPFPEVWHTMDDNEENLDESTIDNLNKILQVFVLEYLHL

Row | SMILES | IC50 [µM]
1 | O=C(C/N=C1/NC(=O)N(CCCn2ccnc2)C1C1CCC=CO1)N1CCc2ccccc2C1 (stereo not shown) [Compound 67, 4-2-(3,4-Dihydro-1H-isoquinolin-2-yl)-2-oxo-ethylimino-5-(3,4-dihydro-2H-pyran-2-yl)-1-(3-imidazol-1-yl-propyl)-imidazolidin-2-one] | 4.9
2 | O=C(C/N=C1/NC(=O)N(CCCn2ccnc2)C1c1cc(F)cc(F)c1)N1CCc2ccccc2C1 (stereo not shown) [Compound 69, 5-(3,5-Difluoro-phenyl)-4-2-(3,4-dihydro-1H-isoquinolin-2-yl)-2-oxo-ethylimino-1-(3-imidazol-1-yl-propyl)-imidazolidin-2-one] | 4.9
3 | O=C(C/N=C1/NC(=O)N(CCCn2ccnc2)C1CO)N1CCc2ccccc2C1 (stereo not shown) [Compound 72, 4-2-(3,4-Dihydro-1H-isoquinolin-2-yl)-2-oxo-ethylimino-5-hydroxymethyl-1-(3-imidazol-1-yl-propyl)-imidazolidin-2-one] | 8.5
4 | O=C(C/N=C1/NC(=O)N(CCCn2ccnc2)C1c1ccco1)N1CCc2ccccc2C1 (stereo not shown) [Compound 73, 4-2-(3,4-Dihydro-1H-isoquinolin-2-yl)-2-oxo-ethylimino-5-furan-2-yl-1-(3-imidazol-1-yl-propyl)-imidazolidin-2-one] | 6.7
5 | CCCCC1/C(=N\CC(=O)N2CCc3ccccc3C2)NC(=O)N1CCCn1ccnc1 (stereo not shown) [Compound 74, 5-Butyl-4-2-(3,4-dihydro-1H-isoquinolin-2-yl)-2-oxo-ethylimino-1-(3-imidazol-1-yl-propyl)-imidazolidin-2-one] | 7.6
6 | CCC1/C(=N\CC(=O)N2CCc3ccccc3C2)NC(=O)N1CCCn1ccnc1 (stereo not shown) [Compound 75, 4-2-(3,4-Dihydro-1H-isoquinolin-2-yl)-2-oxo-ethylimino-5-ethyl-1-(3-imidazol-1-yl-propyl)-imidazolidin-2-one] | 7.6
7 | O=C(C/N=C1\NC(=O)N(CCCn2ccnc2)C1c1ccccc1F)N1CCc2ccccc2C1 (stereo not shown) [Compound 76, 4-2-(3,4-Dihydro-1H-isoquinolin-2-yl)-2-oxo-ethylimino-5-(2-fluoro-phenyl)-1-(3-imidazol-1-yl-propyl)-imidazolidin-2-one] | 5.8
8 | O=C(C/N=C1/NC(=O)N(CCCn2ccnc2)C1c1cccc(F)c1)N1CCc2ccccc2C1 (stereo not shown) [Compound 77, 4-2-(3,4-Dihydro-1H-isoquinolin-2-yl)-2-oxo-ethylimino-5-(3-fluoro-phenyl)-1-(3-imidazol-1-yl-propyl)-imidazolidin-2-one] | 4

More lines, now with the values ahead:

Row | IC50 [µM] | SMILES
9 | 4 | O=C(C/N=C1/NC(=O)N(CCCn2ccnc2)C1c1ccccc1)N1CCc2ccccc2C1 (stereo not shown) [Compound 66, 4-2-(3,4-Dihydro-1H-isoquinolin-2-yl)-2-oxo-ethylimino-1-(3-imidazol-1-yl-propyl)-5-phenyl-imidazolidin-2-one]
10 | 4 | O=C(C/N=C1\NC(=O)N(CCCn2ccnc2)C1c1cccc(F)c1F)N1CCc2ccccc2C1 (stereo not shown) [Compound 68, 5-(2,3-Difluoro-phenyl)-4-2-(3,4-dihydro-1H-isoquinolin-2-yl)-2-oxo-ethylimino-1-(3-imidazol-1-yl-propyl)-imidazolidin-2-one]
11 | 3.1 | O=C(C/N=C1/NC(=O)N(CCCn2ccnc2)C1c1ccc(Cl)c(F)c1)N1CCc2ccccc2C1 (stereo not shown) [Compound 70, 5-(4-Chloro-3-fluoro-phenyl)-4-2-(3,4-dihydro-1H-isoquinolin-2-yl)-2-oxo-ethylimino-1-(3-imidazol-1-yl-propyl)-imidazolidin-2-one]
12 | 4 | O=C(C/N=C1\NC(=O)N(CCCn2ccnc2)C1c1ccccc1Cl)N1CCc2ccccc2C1 (stereo not shown) [Compound 71, 5-(2-Chloro-phenyl)-4-2-(3,4-dihydro-1H-isoquinolin-2-yl)-2-oxo-ethylimino-1-(3-imidazol-1-yl-propyl)-imidazolidin-2-one]
13 | 3.1 | O=C(C/N=C1/NC(=O)N(CCCn2ccnc2)C1c1ccc(F)cc1)N1CCc2ccccc2C1 (stereo not shown) [Compound 78, 4-2-(3,4-Dihydro-1H-isoquinolin-2-yl)-2-oxo-ethylimino-5-(4-fluoro-phenyl)-1-(3-imidazol-1-yl-propyl)-imidazolidin-2-one]
